Molecules are shown by their SMILES.

logP data for 14 compounds are collected here from the OPERA property sets (Mansouri et al. 2018).

For the compound `NC(=O)NS(=O)(=O)c1ccccc1`, the logP (usually the decadic logarithm of the partition coefficient of the neutral form, usually between octanol and water) was found to be 0.28.
`CC(C)NC(=O)NS(=O)(=O)c1ccccc1`: the logP was 1.34.
Consider `CNC(=O)N(C)S(=O)(=O)Cc1ccccc1`, for which the logP was determined as 1.18.
For `CCN(CC)C(=O)NS(=O)(=O)c1ccccc1`, the logP is 0.99.
Take `CNC(=O)NS(=O)(=O)c1cccnc1`: the logP was -0.45.
Take `CCNC(=O)NS(=O)(=O)c1ccccc1`: the log partition coefficient (logP) is 0.9.
Then `CNC(=O)N(C)S(=O)(=O)c1cccnc1`, with 0.42.
Regarding `CCCNC(=O)NS(=O)(=O)c1ccccc1`, the logP turned out to be 1.44.
Take `CNC(=O)NS(=O)(=O)c1ccccc1`: the logP worked out at 0.44.
As to `CN(C)C(=O)NS(=O)(=O)Cc1ccccc1`, the logP came out at 0.54.
Turning to `CC(C)(C)NC(=O)NS(=O)(=O)c1ccccc1`, the lipophilicity (logP) amounted to 1.95.
The compound `NC(=O)NS(=O)(=O)c1cccnc1` registered a logP of -0.65.
`CNC(=O)NS(=O)(=O)Cc1ccccc1`: the logP is 0.54.
`CN(C)C(=O)NS(=O)(=O)c1ccccc1` had a logP of 0.28.
